The values below come from patent publication US6248718A, “Lesion-directed dry dosage forms of antibacterial agents for the treatment of acute mucosal infections of the oral cavity” (priority 1999, dated 2001).

Series [1] deals with Staphylococcus aureus (ATCC 29213). The series is described as follows: MIC for standard strain used in saliva antibiotic assay (Examples I, II). As to conditions: nutrient broth, 37° C., 18 hours. Type of series: cell-based. From the text:
The final concentrations of oxytetracycline in the control standard nutrient broth were 0.25 mcg/ml, 0.5 mcg/ml, 1.0 mcg/ml, 2.0 mcg/ml, 4.0 mcg/ml, and 8.0 mcg/ml. The final dilutions of saliva sample were 1/50,000, 1/100,000, 1/200,000, 1/400,000, 1/800,000 and 1/1,600,000 for the peak concentration test tubes and 1/4,000. 1/8,000, 1/16,000 and 1/32,000 for the trough concentration test tubes. The Staphylococcus aureus (ATCC 29213) was also used as the standard test microorganism.

In series [2] the test system is bacteria in human saliva. Put plainly: Inhibition of bacterial growth in human saliva in vitro (Example IV). Type of series: cell-based. As to the method: For this study, five healthy adult volunteers, three men and two women, were asked to refrain from drinking and eating for two hours after breakfast. At the end of two hours, about five (5) ml of saliva was obtained from the oral cavity of each volunteer. Aliquots of 0.1 ml of saliva were pipetted immediately from each saliva sample and spread over the surface of two 5% sheep blood agar plates with a sterile plastic loop. One inoculated blood agar plate was incubated in an aerobic atmosphere containing 5% CO2, and the other anaerobically at 37° C. for 18 hours, as untreated controls.
Aliquots of 0.2 ml of the saliva from each volunteer's sample were pipetted into sterile test tubes, and labeled from No. 2 to No. 13. Five equal doses of dry powder of the USP grade penicillin G potassium salt, 200 mg each, were weighed and put into five sterile test tubes, all labeled No. 1. The dry powder of antibiotic was dissolved in 0.4 ml saliva obtained from each of the five volunteers to constitute an initial concentration of antibiotic concentration of […] in saliva. An aliquot of 0.2 ml of the saliva antibiotic solution was pipetted from tube No. 1 into tube No. 2. After having been thoroughly mixed, 0.2 ml of the content in tube No. 2 was pipetted to tube No. 3, and so forth continuously in succession to make a serial double dilution of penicillin G potassium solutions in saliva through tube No. 13. Finally, the test tubes contained different concentrations of penicillin G potassium in the saliva of five volunteers, as follows.
The mixtures of antibiotic and saliva in the test tubes were incubated at 37° C. One hour later, an aliquot of 0.1 ml was pipetted from the content of each tube, first dropped in the center of a blood agar plate and then spread to the periphery of the plate surface. The plates were incubated aerobically at 37° C. with 5% carbon dioxide in the atmosphere for 18 hours and were examined for bacterial growth.

Series [3] concerns bacteria in saliva of healthy volunteers. Put plainly: Inhibition of bacterial growth in the saliva in vivo (Example V). The conditions noted are these: in theory, 0.1 ml saliva. As to the method:
Five healthy adult volunteers, three men and two women, were asked to refrain from drinking or eating for two hours after breakfast. At the end of two hours, an aliquot of 0.1 ml of saliva was pipetted from the mouth of each volunteer and spread over the surface of a sheep blood agar plate with a sterile plastic loop. The inoculated blood agar plate was incubated in an aerobic atmosphere containing 5% CO2 as pre-medication control. Then 100 mg, 50 mg, 20 mg, 10 mg and 2 mg of penicillin G potassium dry powder, USP grade, were placed in the right buccal pouch with a spatula between the cheek and the lower gum of each volunteer, respectively. The volunteers were asked to retain the dissolved penicillin powder at the site of medication as concentrated as possible, not to be diluted by saliva from other parts of the mouth for one hour.
At the end of one hour, 0.1 ml of saliva from each volunteer was pipetted from the right buccal pouch where the medication was placed, and inoculated and spread onto the surface of a sheep blood agar plate. The inoculum was spread with a sterile plastic loop.

For series [4], the system named is Gram-negative bacilli (Salmonella, Shigella, most Escherichia coli strains, all Proteus mirabilis strains and most Bacteroides strains). As to conditions: in vitro; cited from earlier work.
For series [5] the following is noted: intravenous injection of 500 mg penicillin G; cited from earlier work.
Series [6] in a line: Topical treatment of patients with aphthous ulcers with troches. Type of series: in vivo, human. As to the method:
Patients with aphthous ulcers were advised to brush their teeth to rid them of food residues, and to rinse their mouths with water prior to initiating treatment. One penicillin/magnesium stearate troche was placed in the patients mouths directly over the ulcerated lesion. The troche was dissolved or disintegrated in a minimum amount of saliva directly over the ulcer in no more than 15 minutes, preferably in about 8 to about 12 minutes. The patients were advised to keep the ingredients of the disintegrated troche at the site of the lesion as long as possible. Food and beverages were avoided for one hour after each treatment. If multiple aphthous ulcers were present, only one troche is required for the treatment of a cluster of small ulcers. The topical treatments were conducted 4 times daily, for example, after breakfast, after lunch, after dinner and before bed time for no more than 4 days. […] The burning sensation lessened with subsequent applications.
For instance, the first sign of healing is usually the fading of the hyperemic zone at the periphery of the ulcer and the lessening of edema at the base of the ulcer. The membrane covering the ulcer becomes thinner, more translucent, more pearly white instead of a grayish-yellowish white prior to the application and contract with the troche. […]

Series [7] in a line: Local concentration of penicillin in saliva after a troche containing 50 mg penicillin G. The class given is in vivo, human. As for the experimental part: The local concentration of penicillin in the saliva was determined as follows. […] This loculated pocket of saliva was not swallowed and was not to be diluted with excess saliva from other parts of the mouth for one hour. Two samples were taken for assay to determine the peak and trough local concentrations of penicillin during the one-hour duration of medicinal treatment. At the time when the troche was completely dissolved and one hour later, aliquots of 10 microliters were pipetted from this pocket of saliva solution at the site of medication, representing the peak level and the trough level of antibiotic concentration, and transferred into 10 ml of distilled water to make a 1:1.000 dilution and into 1 ml of distilled water to make a 1:100 dilution, respectively. The diluted saliva antibiotic solutions were passed through a sterile bacteria-filter to remove any bacterial or fungal contaminants of the oral flora.
For determination of the peak concentration, 1 ml of the bacteria-free filtrate was further diluted with 9 ml of nutrient broth to achieve a 1:10,000 dilution of the saliva. Then a serial two-fold dilution was made of this 1:10,000 diluted saliva sample with an equal volume of nutrient broth in a roll of test tubes to obtain a series of 1 ml aliquots of nutrient broth in which the saliva was diluted to 20,000, 40,000, 80,000, 160,000, 320,000, 640,000, 1,280,000 and 2,560,000 folds respectively. […] Thus the final dilutions of the saliva sample were in the range of 40,000 to 5,120,000 folds.
For determining the trough concentration, the entire 1 ml of the 1:100 diluted saliva filtrate was used to make the serial dilutions so that the final dilutions of saliva sample were in the range of 4,000 to 256,000 folds in the final test culture.
As control standards, a series of test tubes containing 1 ml of nutrient broth with varying concentrations of penicillin G potassium salt ranging from 0.1 units to 10 units/ml were similarly mixed with an equal volume of nutrient broth freshly inoculated with the standard tubes of Staphylococcus aureus. Both the test and control standard tubes were incubated at 37° C. for 18 hours. Among the test tubes showing no gross evidence of bacterial growth, the one containing the highest dilution of saliva and the one containing the least amount of penicillin G were considered as having the identical concentration of penicillin, i.e. the MIC of the staphylococcus aureus.

The test system of series [8] is Staphylococcus aureus ATCC 29213. The series is described as follows: MIC for standard strain used in saliva antibiotic assay (Examples VII-IX). Type of series: cell-based. The conditions noted are these: nutrient broth, 37° C., 18 hours. As to the method: Each filtered mixture in test tube was inoculated with 0.1 ml of a 1:1,000 dilution of a 12 hour broth culture of Staphylococcus aureus ATCC 29213.
A row of 6 test tubes each containing 2 ml of nutrient broth with decreasing concentrations of penicillin G potassium from 6.2 to 0.16 mcg/ml, using a serial double dilution method described in a., was prepared and similarly inoculated with 0.1 ml broth culture of Staphylococcus aureus ATCC 29213 as the standard.
All test tubes were incubated at 37° C. for 18 hours and observed for bacterial growth against an inoculated broth containing neither antibiotic nor saliva samples.
In this study, the drug powder was suspended in one teaspoonful of water and swallowed by the test subjects two hours after breakfast, followed by drinking an 8 Oz. glass of water. The test subjects refrained from drinking or eating for the next three hours. Six samples of saliva were collected from each subject at 30-minute intervals in succession in the next three hours. An aliquot of 0.2 ml from each saliva sample was transferred to 3.8 ml of nutrient broth. The mixture of the latter was forced to pass a bacterial filter. Two (2) ml of the bacteria-free filtrate was pipetted out into a sterile test tube and inoculated with 0.1 ml of a 1:1,000 dilution of a 12 hours broth culture of Staphylococcus aureus ATCC 29213 and incubated at 37° C. for 18 hours. […]

Series [9] deals with Staphylococcus aureus (ATCC 29213). As to conditions: standard strain; cited from earlier work.
The conditions of series [10]: earlier treatments of oral infections / aphthous ulcers; cited from earlier work.

Converted amounts (≈) assume the structure as drawn.

Turning to `CC1(C)S[C@@H]2[C@H](NC(=O)Cc3ccccc3)C(=O)N2[C@H]1C(=O)O` [penicillin G], the MIC came to 1 unit/ml in series [1] and 2000 µg/mL (≈ 5.98 mM) in series [2] (Homo sapiens, read-out: MIC / concentration inhibiting growth of oral flora in saliva). Also, the bactericidal effect result in series [2] (1 mg/ml, one hour's incubation) was “not "bactericidal" within one hour's incubation time”. The “theoretical dose sufficient for initial topical MIC concentration of 2 mg/ml” value in series [3] turned out to be 0.2 mg. Further, the “cut-off minimum inhibition concentration at which many Gram-negative bacilli fall into sensitive category” value in series [4] was no more than 740 µg/mL. In series [5], the “average peak blood level” value is 16 mcg/ml and about 16 mcg/ml and about 26 units/mi.
`CC1(C)S[C@@H]2[C@H](NC(=O)Cc3ccccc3)C(=O)N2[C@H]1C(=O)O` [penicillin]: in series [6] (4 days of penicillin medication), the adverse reactions entry was “no observed adverse reactions of stomatitis or discoloration of the tongue”. In series [6] (after 4 days of penicillin medication), the “state of ulcer membrane” value is listed as “only remnants of a thin pearly whitish membrane remain, if any”. The “initial concentration at the ulcer” value in [7] (assuming troche is dissolved in 0.1 ml of saliva) is recorded as “up to 500 mg/ml”. For the same molecule, in series [7] (human, in vivo, 60 min), the “local trough concentration in saliva” value is recorded as “about 12,000 Units per 1 ml saliva”. The concentration at 1 h in series [7] (human, saliva, 50 mg, 50 mg troche, end of one hour, read-out: local trough concentration in saliva) is roughly 7500 µg/mL. In addition, the “concentration at which bacteria grew to full turbidity” value in series [8] was no more than 0.37 µg/mL. Besides, in [2] (in vitro, aerobic), the “MIC / concentration inhibiting growth of oral flora in saliva” value amounted to 2000 µg/mL. In addition, the “known minimum inhibitory concentration (MIC)” value in [9] is recorded as 0.25-2 units/mi. Further, in [10], the effectiveness of treatment result was “ineffective”.
